Active and inactive are the calls of the source. The rule behind the calls is not given here.
Columns and labels:
Androgen receptor = molecular target: T1, Androgen receptor (Homo sapiens, UniProt P10275); assay: Binding affinity to androgen receptor by fluorescence binding assay
T1 sequence (P10275 whole entry): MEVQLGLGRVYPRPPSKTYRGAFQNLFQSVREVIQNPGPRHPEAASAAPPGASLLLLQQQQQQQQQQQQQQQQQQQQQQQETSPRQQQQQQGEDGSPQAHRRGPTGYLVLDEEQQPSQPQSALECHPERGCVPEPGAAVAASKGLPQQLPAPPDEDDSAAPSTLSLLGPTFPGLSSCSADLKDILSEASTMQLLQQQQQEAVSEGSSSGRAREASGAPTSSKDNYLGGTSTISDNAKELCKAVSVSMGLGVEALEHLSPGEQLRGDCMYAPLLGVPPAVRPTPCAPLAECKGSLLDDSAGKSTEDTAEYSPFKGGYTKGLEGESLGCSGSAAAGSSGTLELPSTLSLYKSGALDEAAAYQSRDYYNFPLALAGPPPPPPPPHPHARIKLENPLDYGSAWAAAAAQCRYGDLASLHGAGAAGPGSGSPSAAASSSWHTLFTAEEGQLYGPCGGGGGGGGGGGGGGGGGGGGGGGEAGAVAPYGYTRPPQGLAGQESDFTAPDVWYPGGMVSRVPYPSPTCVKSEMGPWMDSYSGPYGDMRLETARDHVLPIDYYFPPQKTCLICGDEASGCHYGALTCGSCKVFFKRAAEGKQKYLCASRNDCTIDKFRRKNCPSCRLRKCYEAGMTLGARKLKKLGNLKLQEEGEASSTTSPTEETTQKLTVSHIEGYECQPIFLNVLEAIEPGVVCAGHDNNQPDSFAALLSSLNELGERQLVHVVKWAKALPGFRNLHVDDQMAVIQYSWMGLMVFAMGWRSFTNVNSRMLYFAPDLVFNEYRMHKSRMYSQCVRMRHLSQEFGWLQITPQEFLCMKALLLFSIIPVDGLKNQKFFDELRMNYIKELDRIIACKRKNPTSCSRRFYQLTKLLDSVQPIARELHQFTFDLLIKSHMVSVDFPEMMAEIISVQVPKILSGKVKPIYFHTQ

Rattus norvegicus = assay: Positive-anabolic effect in Sprague-Dawley rat assessed as increase in leavator ani muscle weight at 30 mg/kg, po administered once daily for 4 days and measured 24 hrs after the last dose by Herschberger assay; type: functional, organism-based; set-up: dose 30 mg/kg; settings: Muscle tissue

SMILES | IC50 (Androgen receptor) [nM] | Activity (Rattus norvegicus)
CC1(O)CCCc2c1[nH]c1cc(Cl)c(Cl)cc21 (stereo unspecified) | > 10000 | –
Oc1c(Cc2ccccc2)ccc2c1[nH]c1ccc(Cl)c(Cl)c12 | > 1000 | –
OC1(C(F)(F)F)CCCc2c1[nH]c1ccc(Cl)c(Cl)c21 (stereo unspecified) | 95 | –
N#Cc1ccc2[nH]c3c(c2c1)CCCC3(O)C(F)(F)F (stereo unspecified) | 480 | –
CC1(O)CCCc2c1[nH]c1ccc(C#N)cc21 (stereo unspecified) | 9200 | –
OC1(C(F)(F)F)CCCc2c1[nH]c1c(Cl)cc(Cl)cc21 (stereo unspecified) | 34 | –
Oc1c(Cc2ccccc2)ccc2c1[nH]c1cc(Cl)c(Cl)cc12 | > 1000 | –
N#Cc1ccc2[nH]c3c(c2c1)CCCC3(O)C(F)(F)C(F)(F)F (stereo unspecified) | > 10000 | –

The next lines start with results.

IC50 (Androgen receptor) [nM] | SMILES | Activity (Rattus norvegicus)
100 | OC1(C(F)(F)F)c2[nH]c3c(Cl)cc(Cl)cc3c2CCC1(F)F (stereo unspecified) | –
34 | OC1(C(F)(F)C(F)(F)F)CCCc2c1[nH]c1cc(Cl)c(Cl)cc21 (stereo unspecified) | –
27 | OC1(C(F)(F)F)CCCc2c1[nH]c1cc(Cl)c(Cl)cc21 (stereo unspecified) | Active
13 | OC1(C(F)(F)F)CCc2c1[nH]c1c(Cl)cc(Cl)cc21 (stereo unspecified) | –
90 | OC1(C(F)(F)F)CCCc2c1[nH]c1c(Cl)cc(F)cc21 (stereo unspecified) | –
85 | OC1(C(F)(F)F)CCCc2c1[nH]c1c(Cl)ccc(Cl)c21 (stereo unspecified) | –
600 | OC1(C(F)(F)F)CCCCc2c1[nH]c1c(Cl)cc(Cl)cc21 (stereo unspecified) | –
